Six substances from patent US20050008751A1, “Fermented milk product” (Unilever Bestfoods, North America, priority 2001, published 2005) can be followed below.

In this assay the test system is ACE. The assay can be described thus: ACE inhibition (IC50) of synthesized peptides. It is filed as biochemical. On the procedure: The ACE inhibition activity was assayed according to the method 15 of Matsui et al. (Matsui, T. et al. (1992) Biosci. Biotech. Biochem. 56: 517-518) with the modifications described below.
For each sample 75 μl 3 mM hippuryl histidine leucine (Hip-His-Leu, Sigma chemicals Co.; the chemical was dissolved in 250 mM Borate containing 200 mM NaCl, pH 8.3); 20 μl 0.1 U/ml ACE (obtained at Sigma) or H2 O, and 25 μl sample or H2O were mixed (see Table 1). The mixtures were incubated at 37° C. and stopped after 30 min by adding 125 μl 0.5 M HCl. Subsequently, 225 μl bicine/NaOH solution (1 M NaOH : 0.25 M bicine (4:6)) was added, followed by […] 0.1 M TNBS (2,4,6-Trinitrobenzenesulfonic acid, Fluka, Switzerland; in 0.1 M Na2HPO4). After incubation for 20 min. at 37° C., 4 ml 4 mM Na2SO3 in 0.2 M NaH2PO4 was added and the absorbance at 416 nm was measured with UV/Vis spectrophotometer (Shimadzu UV-1601 with a CPS controller, Netherlands). The amount of ACE inhibition (ACEI) activity was calculated as a percentage of inhibition compared with the conversion rate of ACE in the absence of an inhibitor: ACEI (%) (((C1-C2)-(S1-S2))/(C1-C2))*100 (1) wherein • C1=Absorbance without ACE inhibitory component (=max. ACE activity) [AU]. • C2=Absorbance without ACE inhibitory component and without ACE (background) [AU]. • S1=Absorbance in the presence of ACE and the ACE inhibitory component [AU]. • S2=Absorbance in the presence of the ACE inhibitory component, but without ACE [AU].

As a reminder, the IC50 is the midpoint of a concentration-inhibition curve. “Leu-Pro-Val-Pro (LPVP; printed: Leu-Pro-Val-Pro)”: the IC50 amounted to 250 µM. In the case of KVLPVPQ [Lys-Val-Leu-Pro-Val-Pro-Gln], the IC50 was found to be 1000 µM. For Leu-Pro [LP], the IC50 was over 1000 µM. As to KVLPVP [Lys-Val-Leu-Pro-Val-Pro], it took 5 µM to reach half-maximal inhibition (IC50). On to Val-Leu-Pro [VLP], for which the IC50 is 120 µM. Against the preceding substance, the IC50 is about 24-fold higher. For Leu-Pro-Val [LPV] the value was over 1000 µM.
